In ChEMBL document CHEMBL1201862, “PubChem BioAssay data set” (2004):
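Where inhibition never reached the appropriate level, the endpoint shown equals the highest concentration tested. Otherwise, values were interpolated linearly from a five-concentration, 48-hour dose response in 96-well plates. Here, GI50 denotes the concentration required for 50% inhibition of growth.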 The source made the active and inactive calls. No stated cut-off is given here; in the data, active = GI50 up to about 1.1 µM and inactive = higher.

Key:
Test in all cases: inhibition of tumour cell growth, NCI panel, 48 h
[1] = test system: A498
[2] = test system: A549
[3] = test system: EKVX
[4] = test system: HCC 2998
[5] = test system: HCT-116
[6] = test system: HCT-15
[7] = test system: IGROV-1
[8] = test system: MOLT-4
[9] = test system: NCI-H522
[10] = test system: OVCAR-3
[11] = test system: OVCAR-4
[12] = test system: RPMI-8226
[13] = test system: SF-268
[14] = test system: SF-295
[15] = test system: SF-539
[16] = test system: SK-MEL-28
[17] = test system: SK-MEL-5
[18] = test system: U-251
[19] = test system: UACC-257
[20] = test system: SW-620

Row | Compound | GI50 [1] | GI50 [2] | GI50 [3] | GI50 [4] | GI50 [5] | GI50 [6] | GI50 [7] | GI50 [8] | GI50 [9] | GI50 [10] | GI50 [11] | GI50 [12] | GI50 [13] | GI50 [14] | GI50 [15] | GI50 [16] | GI50 [17] | GI50 [18] | GI50 [19] | GI50 [20]
1 | COC(=O)c1c(OC(C)=O)ccc2c1c1c(n2Cc2ccccc2)C(=O)c2ccccc2C1=O | 19.4 µM (inactive) | 26.4 µM (inactive) | 19.6 µM (inactive) | 16.2 µM (inactive) | 15.7 µM (inactive) | 19.7 µM | 20.1 µM (inactive) | 16.8 µM (inactive) | 19.5 µM (inactive) | 17.6 µM (inactive) | 21.8 µM (inactive) | 15.7 µM (inactive) | 26.5 µM (inactive) | 17.5 µM (inactive) | 17.9 µM (inactive) | 21.4 µM (inactive) | 14.2 µM (inactive) | 19.4 µM (inactive) | 10.7 µM (inactive) | 
2 | Cc1sc(N)c(S(=O)(=O)c2ccccc2)c1C | > 100 µM (inactive) | > 100 µM (inactive) | > 100 µM (inactive) | > 100 µM (inactive) | > 100 µM (inactive) | > 100 µM | > 100 µM (inactive) | > 100 µM (inactive) | > 100 µM (inactive) | 80.5 µM (inactive) | > 100 µM (inactive) | > 100 µM (inactive) | > 100 µM (inactive) | > 100 µM (inactive) | 5.13 µM (inactive) | > 100 µM (inactive) | > 100 µM (inactive) | > 100 µM (inactive) | > 100 µM (inactive) | > 100 µM (inactive)
3 | Brc1ccc(/C(N=N/C(=N\Sc2ccccc2)c2ccc(Br)cc2)=N/Sc2ccccc2)cc1 | > 100 µM (inactive) | > 100 µM (inactive) | > 100 µM (inactive) | > 100 µM (inactive) | > 100 µM (inactive) | > 100 µM | > 100 µM (inactive) | > 100 µM (inactive) | > 100 µM (inactive) | > 100 µM (inactive) | > 100 µM (inactive) | > 100 µM (inactive) | > 100 µM (inactive) | > 100 µM (inactive) | > 100 µM (inactive) | > 100 µM (inactive) | > 100 µM (inactive) | > 100 µM (inactive) | > 100 µM (inactive) | > 100 µM (inactive)
4 | CC1CNC(NS(=O)(=O)c2cc(C(=O)Nc3ccc(F)cc3)c(Cl)cc2S)=NN1 (configuration not stated) | 17.2 µM (inactive) | 49.4 µM (inactive) | > 100 µM (inactive) | 40.5 µM (inactive) | 37.7 µM (inactive) | 37.8 µM | 71 µM (inactive) | 59.3 µM (inactive) | 33.3 µM (inactive) | 92.9 µM (inactive) | > 100 µM (inactive) | 34.9 µM (inactive) | 50.4 µM (inactive) | 66.5 µM (inactive) | 39.5 µM (inactive) | 56.2 µM (inactive) | 26.2 µM (inactive) | 48.4 µM (inactive) | > 100 µM (inactive) | 45.3 µM (inactive)
5 | CCCC(=O)Nc1cc(/C=C/C(=O)N2CC(CCl)c3c2cc(OCc2ccccc2)c2[nH]cc(C)c32)n(C)c1 (configuration not stated) | 0.0953 µM (active) | 0.0219 µM (active) | 0.136 µM (active) | 0.0253 µM (active) | 0.0272 µM (active) | 0.106 µM | 0.0211 µM (active) | 0.00855 µM (active) | 0.00849 µM (active) | 0.127 µM (active) | 0.069 µM (active) | 0.0745 µM (active) | 0.0226 µM (active) | 0.0317 µM (active) | 0.0472 µM (active) | 0.215 µM (active) | 0.02 µM (active) | 0.0513 µM (active) | 0.105 µM (active) | 0.0597 µM (active)
6 | CC(C)NC(=O)OCc1c(COC(=O)NC(C)C)c(-c2cc[n+](COC(=O)Cc3ccccc3)cc2)n2c1CCC2 | > 100 µM (inactive) | > 100 µM (inactive) | > 100 µM (inactive) | > 100 µM (inactive) | > 100 µM (inactive) | > 100 µM | > 100 µM (inactive) | 47.8 µM (inactive) | > 100 µM (inactive) | > 100 µM (inactive) | > 100 µM (inactive) | > 100 µM (inactive) | 55.1 µM (inactive) | 92 µM (inactive) | > 100 µM (inactive) | > 100 µM (inactive) | > 100 µM (inactive) | > 100 µM (inactive) | > 100 µM (inactive) | > 100 µM (inactive)
7 | COc1cc(N/N=C/C#N)cc(OC)c1OC | > 10 µM (inactive) | > 10 µM (inactive) | > 10 µM (inactive) | > 10 µM (inactive) | > 10 µM (inactive) | > 10 µM | > 10 µM (inactive) | 2.92 µM (inactive) | 1.01 µM (active) | > 10 µM (inactive) | > 10 µM (inactive) | 2.16 µM (inactive) | > 10 µM (inactive) | > 10 µM (inactive) | > 10 µM (inactive) | > 10 µM (inactive) | > 10 µM (inactive) | > 10 µM (inactive) |  | 8.28 µM (inactive)
8 | COC(=O)c1sc(=NC(=S)N2CCCCC2)sc1C(=O)OC | > 100 µM (inactive) |  |  | > 100 µM (inactive) | > 100 µM (inactive) | > 100 µM | > 100 µM (inactive) | > 100 µM (inactive) | 0.569 µM (active) | 3.01 µM (inactive) | > 100 µM (inactive) | > 100 µM (inactive) | > 100 µM (inactive) |  | > 100 µM (inactive) | > 100 µM (inactive) | 80.9 µM (inactive) | 32.4 µM (inactive) | > 100 µM (inactive) | > 100 µM (inactive)
9 | COC(=O)c1c(-c2ccccc2)c2sc3ccccc3n2c1N | 30.5 µM (inactive) | 29.6 µM (inactive) | 58.3 µM (inactive) | 31.5 µM (inactive) | 28.6 µM (inactive) | 85.7 µM | 58.6 µM (inactive) |  | 24.2 µM (inactive) | 48.9 µM (inactive) | 56.5 µM (inactive) | > 100 µM (inactive) | 44 µM (inactive) | 34.1 µM (inactive) | 28.1 µM (inactive) | 66.1 µM (inactive) | 59 µM (inactive) | 59.4 µM (inactive) | > 100 µM (inactive) | 
10 | C#Cc1c(C)c(/C=C/C(C)=C\C(=O)OC)n(C)c1C | 81.3 µM (inactive) | > 100 µM (inactive) | > 100 µM (inactive) | > 100 µM (inactive) |  | 92.9 µM | > 100 µM (inactive) | 7.06 µM (inactive) | 50.7 µM (inactive) | 96.2 µM (inactive) | 75.9 µM (inactive) | 18.8 µM (inactive) | 68.5 µM (inactive) | > 100 µM (inactive) | 67.5 µM (inactive) |  |  | > 100 µM (inactive) | > 100 µM (inactive) | > 100 µM (inactive)
11 | CC1C(O)C2(Oc3cc4c(c5c3[C@@H](CC5O)[C@H]2C)CCC2Cc3nc5c(nc3C[C@@]42C)CC2CCC3C4=C[C@H]6O[C@@]7(O[C@@](C)(CO)C[C@@H]7O)C(C)[C@@]6(O)[C@]4(C)[C@@H](O)CC3[C@]2(C)C5)OC1(C)C (some centres not stated) | 0.0652 µM (active) | 0.0581 µM (active) | 0.123 µM (active) | 0.536 µM (active) | 0.12 µM (active) | 0.649 µM | 0.128 µM (active) |  | 0.123 µM (active) | 0.0891 µM (active) | 0.498 µM (active) | 0.0364 µM (active) | 0.0904 µM (active) | 0.00531 µM (active) | 0.078 µM (active) |  | 0.237 µM (active) | 0.00302 µM (active) | 0.614 µM (active) | 0.201 µM (active)
12 | N#Cc1cc2c(cc1C#N)/C(=N\c1cccc(N)n1)N/C2=N\c1cccc(N)n1 | > 10 µM (inactive) | 40.8 µM (inactive) | > 100 µM (inactive) | 20.5 µM (inactive) | 11.1 µM (inactive) | 16.3 µM | 20.7 µM (inactive) | 3.78 µM (inactive) | 9.38 µM (inactive) | 29.5 µM (inactive) |  | 32.7 µM (inactive) | 15.1 µM (inactive) | 21.3 µM (inactive) | 6.75 µM (inactive) | 18.8 µM (inactive) | 7.16 µM (inactive) | 32.5 µM (inactive) | 28.1 µM (inactive) | 11.4 µM (inactive)
13 | O=C(O)c1cc2c3c(c1)[C@H]1C=CC[C@H]1CN3CC1CC=CC21 (some centres not stated) | > 100 µM (inactive) | > 100 µM (inactive) | > 100 µM (inactive) | > 100 µM (inactive) | > 100 µM (inactive) | > 100 µM | > 100 µM (inactive) | > 100 µM (inactive) | > 100 µM (inactive) | > 100 µM (inactive) | > 100 µM (inactive) | > 100 µM (inactive) | > 100 µM (inactive) | > 100 µM (inactive) | > 100 µM (inactive) |  | > 100 µM (inactive) | > 100 µM (inactive) | > 100 µM (inactive) | > 100 µM (inactive)
14 | O=c1cc(N2CCCC2)[nH]c(=O)n1-c1cccc(C(F)(F)F)c1 | > 100 µM (inactive) |  | > 100 µM (inactive) | > 100 µM (inactive) | > 100 µM (inactive) | > 100 µM | > 100 µM (inactive) | > 100 µM (inactive) | > 100 µM (inactive) | > 100 µM (inactive) | > 100 µM (inactive) | 76.4 µM (inactive) | > 100 µM (inactive) | > 100 µM (inactive) | > 100 µM (inactive) |  |  | > 100 µM (inactive) | > 100 µM (inactive) | > 100 µM (inactive)
15 | COC(=O)CC1(CNC(=O)OCc2ccccc2)OCCO1 | > 100 µM (inactive) | > 100 µM (inactive) | > 100 µM (inactive) | > 100 µM (inactive) | > 100 µM (inactive) | > 100 µM | > 100 µM (inactive) | > 100 µM (inactive) | > 100 µM (inactive) | > 100 µM (inactive) | > 100 µM (inactive) | > 100 µM (inactive) |  | > 100 µM (inactive) | > 100 µM (inactive) | > 100 µM (inactive) | > 100 µM (inactive) | > 100 µM (inactive) | > 100 µM (inactive) | > 100 µM (inactive)
